Structures are written as SMILES. Like-named read-outs stand apart in the source and are kept apart here.

This is an account of results in patent US8187635B2, “Pharmaceutical composition containing a pyrrolidone anticonvulsant agent and method for the preparation thereof” (Pharmathen S.A, priority 2007, dated 2012).

Data set [1] can be described thus: Compatibility of Levetiracetam with excipients (impurity profile). In kind it is physicochemical. As for the experimental part: Levetiracetam was tested for its compatibility with several pharmaceutically acceptable excipients comprising the above mentioned properties.
The conditions of data set [2]: cited from earlier work.
For data set [3] the following is noted: cited from earlier work. The source holds these as a separate data set.

Turning to `CC[C@@H](C(N)=O)N1CCCC1=O` [Levetiracetam, S-enantiomer of α-ethyl-2-oxo-1-pyrrolidine acetamide], the “impurity profile of the active ingredient with excipient” value in data set [1] (with PVP) and in data set [1] (with sodium starch glycolate (Primojel)) was “not acceptable” in each case. Further, the solubility entry is recorded as “sparingly soluble” in data set [2] (in acetonitrile); “freely soluble” in data set [2] (in chloroform); “freely soluble” in data set [2] (in methanol); “practically insoluble” in data set [2] (in n-hexane); “very soluble” in data set [2] (in water). For the same compound, the bioavailability in data set [3] is reported as 100%. Moreover, the protein binding result in data set [3] is reported as “lack of protein binding”.
